In patent publication US9834548B2, “Pyridazine compounds as JAK inhibitors” (Portola Pharmaceuticals, Inc., priority 2014, dated 2017) one finds IC50 data, which are given here for 38 molecules.

Common to all, as to format: biochemical
In test [1] the target is JAK2 (Homo sapiens (Human), UniProt O60674). The test is described as follows: Purified kinase assay (Z'-LYTE), JAK2. The conditions noted are these: Table 1; read-out: JAK2 IC50. How it is done: (§1) JAK and TYK2 tyrosine phosphorylation activity is measured using the Z′-LYTE™ Technology developed by Invitrogen Corporation (Carlsbad, Calif.). For JAK1, JAK2 and JAK3 the Z′-LYTE™ Kinase Assay Kit-Tyr6 Peptide (part number PV4122) was used. For TYK2 the Z′-LYTE™ Kinase Assay Kit-Tyr6 Peptide (part number PV3192) was used. The Z′-LYTE™ biochemical assay employs a fluorescence resonance energy transfer (FRET) coupled-enzyme format and is based on the differential sensitivity of phosphorylated and non-phosphorylated peptides to proteolytic cleavage. The assay uses a synthetic peptide substrate that is labeled with a donor fluorophore (coumarin) and an acceptor fluorophore (fluorescein) that make up a FRET pair. In the primary reaction (the Kinase Reaction), the kinase transfers the γ-phosphate of ATP to a single tyrosine residue on the substrate, while the presence of a kinase inhibitor in the primary reaction suppresses phosphorylation. In the secondary reaction (the Development Reaction), a site-specific protease (the Development Reagent) is added. The development buffer quenches the Kinase Reaction, while the protease recognizes and cleaves non-phosphorylated Z′-LYTE™ peptide substrate. Cleavage disrupts FRET between the donor and acceptor fluorophores on the non-phosphorylated substrate, while uncleaved, phosphorylated substrate maintains FRET.
(§2) To test the ability of candidate molecules to inhibit JAK tyrosine phosphorylation activity, molecules are reconstituted in 100% DMSO and serially diluted 1:10 in polypropylene v-bottom microtiter plates. The candidate molecules are then diluted 1:25 into kinase buffer and 2.5 μl transferred into duplicate wells of a 384 well low volume black microtiter assay plate (Corning, USA). The final DMSO concentration in the assay is 1%. The kinase reaction contains 2.5 μl of a candidate molecule, 5 μl of catalytic domain recombinant Kinase enzyme+Tyr peptide substrate (Invitrogen, CA) and ATP (Invitrogen, CA). The kinase reaction is allowed to proceed for 1 hour at room temperature. The protease reaction is initiated by the addition of Development Reagent (Invitrogen, CA). After 1 hour incubation at room temperature the fluorescence is measured using a FlexStation plate reader (Molecular Devices, Sunnyvale, Calif.). The reader settings used are as follows: Fluorescence mode, endpoint, top read, excitation 400 nm, emission 445 nm and 520 nm, Auto Cutoff 435 nm and 515 nm, PMT sensitivity high, 6 reads per well Inhibition of JAK activity is calculated as the percent phosphorylation of substrate in the presence of inhibitor compared to the percent phosphorylation of substrate in the absence of inhibitor. IC50's were derived using Xlfit 4.3 (IDBS, UK), 4 parameter logistic model 205: Y=(A+((B−A)/(1+((C/x)^D)))).

The target of test [2] is JAK3 (Homo sapiens (Human), UniProt P52333). Kind of test: Purified kinase assay (Z'-LYTE), JAK3. The conditions noted are these: Table 1; read-out: JAK3 IC50. How it is done:
as §1, §2

In test [3] the target is JAK1 (Homo sapiens (Human), UniProt P23458). The test is described as follows: Purified kinase assay (Z'-LYTE), JAK1. Particulars: Table 1; read-out: JAK1 IC50. How it is done: as §1, §2
JAK1, sequence (P23458 875-1153): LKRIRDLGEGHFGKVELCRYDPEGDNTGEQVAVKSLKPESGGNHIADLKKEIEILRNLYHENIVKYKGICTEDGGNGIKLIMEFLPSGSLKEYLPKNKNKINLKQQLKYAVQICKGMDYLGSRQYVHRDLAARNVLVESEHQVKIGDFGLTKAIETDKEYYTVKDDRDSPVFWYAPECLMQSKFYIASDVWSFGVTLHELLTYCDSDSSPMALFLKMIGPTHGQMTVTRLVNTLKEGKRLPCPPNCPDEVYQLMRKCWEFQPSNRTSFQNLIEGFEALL

JAK3, sequence (P52333 822-1111): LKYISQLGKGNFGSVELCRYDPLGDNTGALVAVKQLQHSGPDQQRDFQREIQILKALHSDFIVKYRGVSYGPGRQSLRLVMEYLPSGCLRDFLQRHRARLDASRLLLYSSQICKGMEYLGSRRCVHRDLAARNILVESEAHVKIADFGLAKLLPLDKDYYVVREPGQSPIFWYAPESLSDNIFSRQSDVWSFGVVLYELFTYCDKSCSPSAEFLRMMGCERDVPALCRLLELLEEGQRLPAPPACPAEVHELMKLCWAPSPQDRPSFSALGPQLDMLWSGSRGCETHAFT
JAK2, sequence (O60674 849-1124): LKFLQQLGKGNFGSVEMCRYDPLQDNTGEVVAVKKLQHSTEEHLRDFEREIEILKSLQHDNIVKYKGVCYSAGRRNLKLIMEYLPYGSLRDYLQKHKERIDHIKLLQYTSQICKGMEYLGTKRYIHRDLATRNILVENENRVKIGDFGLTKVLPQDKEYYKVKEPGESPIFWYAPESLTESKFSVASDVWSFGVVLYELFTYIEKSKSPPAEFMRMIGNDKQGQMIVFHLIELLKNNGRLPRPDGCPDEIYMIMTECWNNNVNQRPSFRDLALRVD

As a reminder, the IC50 is the concentration needed to halve the response being measured. As for `CC(C)Nc1cc(Nc2ccc(N3CCNCC3)cc2)nnc1C(N)=O` [Compound 12], the concentration for half-maximal inhibition (IC50) in test [1], in test [2] and in test [3] was above 1000 nM in each case.

As to `NC(=O)c1nnc(Nc2cnn(C3CCCC3)c2)cc1NCc1cccc(F)c1F` [Compound 116], the values for the IC50 in test [1], in test [2] and in test [3] were 100 to 1000 nM, 10 to 100 nM and above 1000 nM, respectively.

With `CCn1cc(Nc2cc(NCc3cccc(F)c3)c(C(N)=O)nn2)cn1` [Compound 123], the IC50 in test [1] was 100 to 1000 nM; in test [2] it was 10 to 100 nM; in test [3], above 1000 nM.

For `CC(=O)N1CCN(c2ccc(Nc3cc(NCc4cccc(-c5ccccn5)c4)c(C(N)=O)nn3)cc2)CC1` [Compound 71], the IC50 is above 1000 nM in test [1], 100 to 1000 nM in test [2] and above 1000 nM in test [3].

Turning to `NC(=O)c1nnc(Nc2cnn(CC3CC3)c2)cc1NCc1cccc(F)c1` [Compound 119], the 50% inhibitory concentration (IC50) was 100 to 1000 nM in test [1], 10 to 100 nM in test [2] and above 1000 nM in test [3].

As for `Cc1cc(Nc2cc(NCc3cccc(F)c3)c(C(N)=O)nn2)ccc1N1CCOCC1` [Compound 54], the half-inhibitory concentration (IC50) in test [1] is above 1000 nM; in test [2] it was 10 to 100 nM; in test [3], above 1000 nM.

With `CC(C)n1cc(Nc2cc(NCc3cccc(F)c3)c(C(N)=O)nn2)cn1` [Compound 106], the IC50 in test [1] is 100 to 1000 nM; in test [2] it was 10 to 100 nM; in test [3] it was above 1000 nM.

For the molecule `CC(=O)N1CCN(c2ccc(Nc3cc(NCc4cccc(-c5cccnc5)c4)c(C(N)=O)nn3)cc2)CC1` [Compound 70], the IC50 in test [1] was 100 to 1000 nM; in test [2], 10 to 100 nM; in test [3], above 1000 nM.

On to `NC(=O)c1nnc(Nc2ccc(C(=O)N3CCCC3)cc2)cc1NCc1cccc(F)c1` [Compound 52], for which the IC50 in test [1] was 100 to 1000 nM; in test [2] it was 10 to 100 nM; in test [3], above 1000 nM.

Regarding `CN(c1ccc(Nc2cc(NCc3cccc(F)c3)c(C(N)=O)nn2)cc1)S(C)(=O)=O` [Compound 102], the IC50 in test [1] is 100 to 1000 nM; in test [2], 10 to 100 nM; in test [3], above 1000 nM.

Take `CCC(=O)N1CCC(c2ccc(Nc3cc(NCc4ccccc4F)c(C(N)=O)nn3)cc2)CC1` [Compound 25]: the concentration for half-maximal inhibition (IC50) in test [1] was above 1000 nM; in test [2], 10 to 100 nM; in test [3], above 1000 nM.

With `CC(=O)N1CCN(c2ccc(Nc3cc(NCc4cccnc4)c(C(N)=O)nn3)cc2)CC1` [Compound 79], the values for the IC50 in test [1], in test [2] and in test [3] were above 1000 nM, 100 to 1000 nM and above 1000 nM, respectively.

As to `NC(=O)c1nnc(Nc2ccc3c(c2)CS(=O)(=O)C3)cc1NCc1cccc(F)c1` [Compound 107], the IC50 is 100 to 1000 nM in test [1], 10 to 100 nM in test [2] and above 1000 nM in test [3].

Regarding `CN(C)C(=O)C1CCN(c2ccc(Nc3cc(NCc4cccc(F)c4)c(C(N)=O)nn3)cc2)CC1` [Compound 90], the half-inhibitory concentration (IC50) was 100 to 1000 nM in test [1], 10 to 100 nM in test [2] and above 1000 nM in test [3].

For `NC(=O)c1nnc(Nc2ccc(N3CCOCC3)cc2)cc1NC1CCC1` [Compound 6, 4-(cyclobutylamino)-6-((4-morpholinophenyl)amino)pyridazine-3-carboxamide], the IC50 in test [1] was 100 to 1000 nM; in test [2], 100 to 1000 nM; in test [3] it was above 1000 nM.

For the molecule `CS(=O)(=O)Cc1ccc(Nc2cc(NCc3cccc(F)c3)c(C(N)=O)nn2)cc1` [Compound 85], the 50% inhibitory concentration (IC50) was 100 to 1000 nM in test [1], 10 to 100 nM in test [2] and 100 to 1000 nM in test [3].

With `CC(=O)N1CCC(Cn2cc(Nc3cc(NCc4cccc(F)c4)c(C(N)=O)nn3)cn2)CC1` [Compound 127], the half-maximal inhibitory concentration (IC50) was 100 to 1000 nM in test [1], 10 to 100 nM in test [2] and above 1000 nM in test [3].

Regarding `NC(=O)c1nnc(Nc2ccc(C(=O)N3CCCC3)cc2)cc1NCc1cc(F)cc(F)c1` [Compound 82], the IC50 in test [1] was 100 to 1000 nM; in test [2], 1 to 10 nM; in test [3], 100 to 1000 nM.

Consider `NC(=O)c1nnc(Nc2ccc(C(=O)N3CCCC3)cn2)cc1NCc1cccc(F)c1` [Compound 73], for which the IC50 was 10 to 100 nM in test [1], 1 to 10 nM in test [2] and 100 to 1000 nM in test [3].

As to `CC(=O)N1CCN(c2ccc(Nc3cc(NCc4cccc(C)c4)c(C(N)=O)nn3)cc2)CC1` [Compound 47], the IC50 in test [1] is 100 to 1000 nM; in test [2], 10 to 100 nM; in test [3], above 1000 nM.

Consider `NC(=O)c1nnc(Nc2ccc(N3CCS(=O)(=O)CC3)cc2)cc1NCc1cccc(F)c1` [Compound 94], for which the 50% inhibitory concentration (IC50) is 100 to 1000 nM in test [1], 1 to 10 nM in test [2] and above 1000 nM in test [3].

Take `CN(C(=O)C1CC1)c1ccc(Nc2cc(NCc3cccc(F)c3F)c(C(N)=O)nn2)cc1` [Compound 44]: the IC50 was above 1000 nM in test [1], 10 to 100 nM in test [2] and above 1000 nM in test [3].

For the molecule `CC(=O)N1CCN(c2ccc(Nc3cc(NCc4cccc(C#N)c4)c(C(N)=O)nn3)cc2)CC1` [Compound 72], the IC50 was 100 to 1000 nM in test [1], 10 to 100 nM in test [2] and above 1000 nM in test [3].

Regarding `NC(=O)c1nnc(Nc2ccc(N3CCOCC3)cc2)cc1NCc1cc(F)ccc1F` [Compound 37], the figures for the IC50 in test [1], in test [2] and in test [3] were 10 to 100 nM, 10 to 100 nM and above 1000 nM, respectively.

Take `CC(C)n1cc(Nc2cc(NCc3cccc(F)c3F)c(C(N)=O)nn2)cn1` [Compound 114]: the figures for the IC50 in test [1], in test [2] and in test [3] were 100 to 1000 nM, 10 to 100 nM and 100 to 1000 nM, respectively.

On to `NC(=O)c1nnc(Nc2ccc(N3CCOCC3)cc2)cc1NCc1cccc(F)c1` [Compound 35], for which the IC50 in test [1] is 100 to 1000 nM; in test [2] it was 10 to 100 nM; in test [3] it was above 1000 nM.

`CCn1cc(Nc2cc(NCc3cccc4ccsc34)c(C(N)=O)nn2)cn1` [Compound 122]: the IC50 in test [1] lay within 10 to 100 nM; in test [2], 1 to 10 nM; in test [3] it was 100 to 1000 nM.

Regarding `NC(=O)c1nnc(Nc2ccc(N3CCOCC3)c(F)c2)cc1NCc1cccc(F)c1F` [Compound 43], the IC50 in test [1] was above 1000 nM; in test [2] it was 10 to 100 nM; in test [3], above 1000 nM.

As to `CS(=O)(=O)Cc1ccc(Nc2cc(NC3CCN(c4ccc(C#N)cn4)CC3)c(C(N)=O)nn2)cc1` [Compound 93], the IC50 in test [1], in test [2] and in test [3] was 10 to 100 nM each time.

As to `NC(=O)c1nnc(Nc2ccc(OCCN3CCCC3)cc2)cc1NCc1cccc(F)c1` [Compound 51], the IC50 in test [1] is 100 to 1000 nM; in test [2], 10 to 100 nM; in test [3], above 1000 nM.

For the molecule `CC(=O)N1CCC(Cn2cc(Nc3cc(NCc4cccc5ccsc45)c(C(N)=O)nn3)cn2)CC1` [Compound 125], the IC50 in test [1] was in the range of 10 to 100 nM; in test [2], 1 to 10 nM; in test [3], 100 to 1000 nM.

For the molecule `NC(=O)c1nnc(Nc2cccc(N3CCOCC3)n2)cc1NCc1cccc(F)c1` [Compound 62], the concentration for half-maximal inhibition (IC50) in test [1], in test [2] and in test [3] was above 1000 nM in each case.

As to `CS(=O)(=O)Cc1ccc(Nc2cc(NCc3cccc4ccsc34)c(C(N)=O)nn2)cc1` [Compound 100], the IC50 was 100 to 1000 nM in test [1], 1 to 10 nM in test [2] and 100 to 1000 nM in test [3].

For `CC(=O)N1CCN(c2ccc(Nc3cc(NCc4ccc(Cl)s4)c(C(N)=O)nn3)cc2)CC1` [Compound 76], the values for the IC50 in test [1], in test [2] and in test [3] were above 1000 nM, 10 to 100 nM and above 1000 nM, respectively.

As to `NC(=O)c1nnc(Nc2ccc(N3CCNCC3)cc2)cc1NCC1CCC1` [Compound 17], the half-inhibitory concentration (IC50) in test [1] was above 1000 nM; in test [2], 100 to 1000 nM; in test [3], above 1000 nM.

For the molecule `CS(=O)(=O)Cc1ccc(Nc2cc(NCc3cccc(-c4ccncc4)c3)c(C(N)=O)nn2)cc1` [Compound 132], the half-inhibitory concentration (IC50) in test [1] was above 1000 nM; in test [2], 10 to 100 nM; in test [3] it was above 1000 nM.

Consider `NC(=O)c1nnc(Nc2cnccn2)cc1NCc1cccc(-n2ccnc2)c1` [Compound 111], for which the values for the IC50 in test [1], in test [2] and in test [3] were above 1000 nM, 100 to 1000 nM and above 1000 nM, respectively.

Regarding `CC(=O)N1CCN(c2ccc(Nc3cc(NCc4ccccn4)c(C(N)=O)nn3)cc2)CC1` [Compound 78], the results for the IC50 in test [1], in test [2] and in test [3] were above 1000 nM, 100 to 1000 nM and above 1000 nM, respectively.
